Test results as given in patent EP4806435A1, “DIHYDROCHROMENE-DERIVATIVE-CONTAINING THERAPEUTIC AGENT FOR CANCER” (Sumitomo Pharma Co., Ltd., priority 2023, dated 2025).

Test system: patients with recurrent malignant glioma classified as WHO grade III or IV
Experiment: Phase 1 dose-escalation clinical trial: safety (TEAEs, DLTs, MTD);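 note: dosing continued until unacceptable toxicity, consent withdrawal, loss to follow-up or investigator/sponsor decision, with cohorts of 1-6 patients per dose level and MTD estimated by BLRM from cumulative DLT data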
[1] = 20 mg (N=2), cutoff April 21, 2023
[2] = 20 mg QD (N=2), cutoff April 21, 2024
[3] = 40 mg (N=4), cutoff April 21, 2023
[4] = 40 mg QD (N=4), cutoff April 21, 2024
[5] = 80 mg (N=3), cutoff April 21, 2023
[6] = 80 mg QD (N=3), cutoff April 21, 2024
[7] = 120 mg (N=6), cutoff April 21, 2023
[8] = 120 mg QD (N=6), cutoff April 21, 2024
[9] = 180 mg (N=3), cutoff April 21, 2023
[10] = 180 mg QD (N=6), cutoff April 21, 2024

Procedure: Administration to each subject was continued until unacceptable toxicity occurred, consent was withdrawn, the subject was lost to follow-up, or discontinuation was determined by the investigator and/or the sponsor.
The present study consists of two parts: a dose-escalation part (Part 1) and a dose-expansion part (Part 2).
Each dose level was evaluated in cohorts of 1-6 patients. In all cohorts, administration of the investigational drug to the second and subsequent patients was permitted after completion of all safety assessments on Day 8 of Cycle 1 in the first patient. […] At dose level 2 in the dose-escalation part, at least three patients were required to be evaluated before escalation to a higher dose level. After completion of each cohort, the probability of observing a DLT at each dose level in the present study was updated using the BLRM based on cumulative data from the preceding cohorts, and the MTD was estimated.

CC1(C)Oc2cc(Cl)ccc2[C@@H]2OCC3(CCN(CCn4ccnc4)CC3)C[C@H]21 [Compound 1, (4'aR,10'bR)-8'-chloro-1-[2-(1H-imidazol-1-yl)ethyl]-5',5'-dimethyl-4'a,10'b-dihydro-2'H,4'H,5'H-spiro[piperidine-4,3'-pyrano[3,2-c][1]benzopyran] diphosphate]
Number of patients with any TEAE [1]: 2 (100) n (%)
TEAE: constipation [1]: 0 n (%)
TEAE: decreased appetite [1]: 0 n (%)
TEAE: decreased lymphocyte count [1]: 0 n (%)
TEAE: decreased neutrophil count [1]: 0 n (%)
TEAE: decreased platelet count [1]: 0 n (%)
TEAE: decreased white blood cell count [1]: 0 n (%)
TEAE: dry skin [1]: 1 (50.0) n (%)
TEAE: fall [1]: 0 n (%)
TEAE: headache [1]: 0 n (%)
TEAE: hypertrigly-ceridaemia [1]: 0 n (%)
TEAE: hyponatremia [1]: 0 n (%)
TEAE: increased alanine aminotransferase [1]: 1 (50.0) n (%)
TEAE: increased aspartate aminotransferase [1]: 1 (50.0) n (%)
TEAE: nausea [1]: 1 (50.0) n (%)
TEAE: seizure [1]: 1 (50.0) n (%)
TEAE: vomiting [1]: 0 n (%)
Number of Patients with Any TEAE [2]: 2 (100) n (%)
TEAE: Confusional state [2]: 0 n (%)
TEAE: Gait disturbance [2]: 0 n (%)
TEAE: Gastrointestinal disorder [2]: 0 n (%)
TEAE: Hiccups [2]: 0 n (%)
TEAE: Tremor [2]: 0 n (%)
TEAE: alopecia [2]: 0 n (%)
TEAE: constipation [2]: 0 n (%)
TEAE: decreased appetite [2]: 0 n (%)
TEAE: decreased lymphocyte count [2]: 0 n (%)
TEAE: decreased neutrophil count [2]: 0 n (%)
TEAE: decreased platelet count [2]: 0 n (%)
TEAE: diarrhea [2]: 0 n (%)
TEAE: dry skin [2]: 1 (50.0) n (%)
TEAE: fall [2]: 0 n (%)
TEAE: fatigue [2]: 0 n (%)
TEAE: headache [2]: 0 n (%)
TEAE: hypertrigly-ceridaemia [2]: 0 n (%)
TEAE: hyponatremia [2]: 0 n (%)
TEAE: increase in blood cholesterol [2]: 0 n (%)
TEAE: increased alanine aminotransferase [2]: 1 (50.0) n (%)
TEAE: increased aspartate aminotransferase [2]: 1 (50.0) n (%)
TEAE: maculopapular rash [2]: 0 n (%)
TEAE: nausea [2]: 1 (50.0) n (%)
TEAE: seizure [2]: 1 (50.0) n (%)
TEAE: vomiting [2]: 0 n (%)
dose-limiting toxicities (20 mg to 240 mg, cutoff April 21, 2023): No dose-limiting toxicities were observed at any dose level
serious TEAE: seizure (20 mg, 120 mg, and 180 mg groups, cutoff April 21, 2023): three
Number of patients with any TEAE [3]: 4 (100) n (%)
TEAE: constipation [3]: 1 (25.0) n (%)
TEAE: decreased appetite [3]: 1 (25.0) n (%)
TEAE: decreased lymphocyte count [3]: 2 (50.0) n (%)
TEAE: decreased neutrophil count [3]: 2 (50.0) n (%)
TEAE: decreased platelet count [3]: 2 (50.0) n (%)
TEAE: decreased white blood cell count [3]: 2 (50.0) n (%)
TEAE: dry skin [3]: 0 n (%)
TEAE: fall [3]: 1 (25.0) n (%)
TEAE: headache [3]: 1 (25.0) n (%)
TEAE: hypertrigly-ceridaemia [3]: 1 (25.0) n (%)
TEAE: hyponatremia [3]: 1 (25.0) n (%)
TEAE: increased alanine aminotransferase [3]: 1 (25.0) n (%)
TEAE: increased aspartate aminotransferase [3]: 2 (50.0) n (%)
TEAE: nausea [3]: 2 (50.0) n (%)
TEAE: seizure [3]: 1 (25.0) n (%)
TEAE: vomiting [3]: 1 (25.0) n (%)
Number of Patients with Any TEAE [4]: 4 (100) n (%)
TEAE: Confusional state [4]: 0 n (%)
TEAE: Gait disturbance [4]: 0 n (%)
TEAE: Gastrointestinal disorder [4]: 0 n (%)
TEAE: Hiccups [4]: 2 (50.0) n (%)
TEAE: Tremor [4]: 0 n (%)
TEAE: alopecia [4]: 1 (25.0) n (%)
TEAE: constipation [4]: 1 (25.0) n (%)
TEAE: decreased appetite [4]: 1 (25.0) n (%)
TEAE: decreased lymphocyte count [4]: 2 (50.0) n (%)
TEAE: decreased neutrophil count [4]: 2 (50.0) n (%)
TEAE: decreased platelet count [4]: 2 (50.0) n (%)
TEAE: diarrhea [4]: 0 n (%)
TEAE: dry skin [4]: 0 n (%)
TEAE: fall [4]: 1 (25.0) n (%)
TEAE: fatigue [4]: 1 (25.0) n (%)
TEAE: headache [4]: 1 (25.0) n (%)
TEAE: hypertrigly-ceridaemia [4]: 1 (25.0) n (%)
TEAE: hyponatremia [4]: 1 (25.0) n (%)
TEAE: increase in blood cholesterol [4]: 0 n (%)
TEAE: increased alanine aminotransferase [4]: 1 (25.0) n (%)
TEAE: increased aspartate aminotransferase [4]: 2 (50.0) n (%)
TEAE: maculopapular rash [4]: 0 n (%)
TEAE: nausea [4]: 2 (50.0) n (%)
TEAE: seizure [4]: 1 (25.0) n (%)
TEAE: vomiting [4]: 1 (25.0) n (%)
serious TEAE: disease progression (40 mg QD group, cutoff April 21, 2024): one
serious TEAE: disease progression (40 mg group, cutoff April 21, 2023): one
Number of patients with any TEAE [5]: 3 (100) n (%)
TEAE: constipation [5]: 0 n (%)
TEAE: decreased appetite [5]: 0 n (%)
TEAE: decreased lymphocyte count [5]: 0 n (%)
TEAE: decreased neutrophil count [5]: 2 (66.7) n (%)
TEAE: decreased platelet count [5]: 1 (33.3) n (%)
TEAE: decreased white blood cell count [5]: 1 (33.3) n (%)
TEAE: dry skin [5]: 0 n (%)
TEAE: fall [5]: 0 n (%)
TEAE: headache [5]: 1 (33.3) n (%)
TEAE: hypertrigly-ceridaemia [5]: 0 n (%)
TEAE: hyponatremia [5]: 1 (33.3) n (%)
TEAE: increased alanine aminotransferase [5]: 2 (66.7) n (%)
TEAE: increased aspartate aminotransferase [5]: 0 n (%)
TEAE: nausea [5]: 2 (66.7) n (%)
TEAE: seizure [5]: 0 n (%)
TEAE: vomiting [5]: 0 n (%)
Number of Patients with Any TEAE [6]: 3 (100) n (%)
TEAE: Confusional state [6]: 0 n (%)
TEAE: Gait disturbance [6]: 0 n (%)
TEAE: Gastrointestinal disorder [6]: 0 n (%)
TEAE: Hiccups [6]: 0 n (%)
TEAE: Tremor [6]: 0 n (%)
TEAE: alopecia [6]: 0 n (%)
TEAE: constipation [6]: 0 n (%)
TEAE: decreased appetite [6]: 0 n (%)
TEAE: decreased lymphocyte count [6]: 0 n (%)
TEAE: decreased neutrophil count [6]: 2 (66.7) n (%)
TEAE: decreased platelet count [6]: 1 (33.3) n (%)
TEAE: diarrhea [6]: 0 n (%)
TEAE: dry skin [6]: 0 n (%)
TEAE: fall [6]: 0 n (%)
TEAE: fatigue [6]: 0 n (%)
TEAE: headache [6]: 1 (33.3) n (%)
TEAE: hypertrigly-ceridaemia [6]: 0 n (%)
TEAE: hyponatremia [6]: 1 (33.3) n (%)
TEAE: increase in blood cholesterol [6]: 0 n (%)
TEAE: increased alanine aminotransferase [6]: 2 (66.7) n (%)
TEAE: increased aspartate aminotransferase [6]: 0 n (%)
TEAE: maculopapular rash [6]: 0 n (%)
TEAE: nausea [6]: 2 (66.7) n (%)
TEAE: seizure [6]: 0 n (%)
TEAE: vomiting [6]: 0 n (%)
Number of patients with any TEAE [7]: 6 (100) n (%)
TEAE: constipation [7]: 2 (33.3) n (%)
TEAE: decreased appetite [7]: 0 n (%)
TEAE: decreased lymphocyte count [7]: 0 n (%)
TEAE: decreased neutrophil count [7]: 1 (16.7) n (%)
TEAE: decreased platelet count [7]: 0 n (%)
TEAE: decreased white blood cell count [7]: 0 n (%)
TEAE: dry skin [7]: 1 (16.7) n (%)
TEAE: fall [7]: 1 (16.7) n (%)
TEAE: headache [7]: 2 (33.3) n (%)
TEAE: hypertrigly-ceridaemia [7]: 1 (16.7) n (%)
TEAE: hyponatremia [7]: 1 (16.7) n (%)
TEAE: increased alanine aminotransferase [7]: 2 (33.3) n (%)
TEAE: increased aspartate aminotransferase [7]: 1 (16.7) n (%)
TEAE: nausea [7]: 2 (33.3) n (%)
TEAE: seizure [7]: 1 (16.7) n (%)
TEAE: vomiting [7]: 2 (33.3) n (%)
Number of Patients with Any TEAE [8]: 6 (100) n (%)
TEAE: Confusional state [8]: 0 n (%)
TEAE: Gait disturbance [8]: 0 n (%)
TEAE: Gastrointestinal disorder [8]: 0 n (%)
TEAE: Hiccups [8]: 0 n (%)
TEAE: Tremor [8]: 0 n (%)
TEAE: alopecia [8]: 0 n (%)
TEAE: constipation [8]: 2 (33.3) n (%)
TEAE: decreased appetite [8]: 0 n (%)
TEAE: decreased lymphocyte count [8]: 0 n (%)
TEAE: decreased neutrophil count [8]: 1 (16.7) n (%)
TEAE: decreased platelet count [8]: 0 n (%)
TEAE: diarrhea [8]: 1 (16.7) n (%)
TEAE: dry skin [8]: 1 (16.7) n (%)
TEAE: fall [8]: 1 (16.7) n (%)
TEAE: fatigue [8]: 0 n (%)
TEAE: headache [8]: 2 (33.3) n (%)
TEAE: hypertrigly-ceridaemia [8]: 1 (16.7) n (%)
TEAE: hyponatremia [8]: 1 (16.7) n (%)
TEAE: increase in blood cholesterol [8]: 0 n (%)
TEAE: increased alanine aminotransferase [8]: 2 (33.3) n (%)
TEAE: increased aspartate aminotransferase [8]: 1 (16.7) n (%)
TEAE: maculopapular rash [8]: 0 n (%)
TEAE: nausea [8]: 2 (33.3) n (%)
TEAE: seizure [8]: 1 (16.7) n (%)
TEAE: vomiting [8]: 2 (33.3) n (%)
serious TEAE: aphasia (120 mg QD group, cutoff April 21, 2024): one
serious TEAE: aphasia (120 mg group, cutoff April 21, 2023): one
Number of patients with any TEAE [9]: 3 (100) n (%)
TEAE: constipation [9]: 1 (33.3) n (%)
TEAE: decreased appetite [9]: 1 (33.3) n (%)
TEAE: decreased lymphocyte count [9]: 1 (33.3) n (%)
TEAE: decreased neutrophil count [9]: 1 (33.3) n (%)
TEAE: decreased platelet count [9]: 1 (33.3) n (%)
TEAE: decreased white blood cell count [9]: 0 n (%)
TEAE: dry skin [9]: 0 n (%)
TEAE: fall [9]: 1 (33.3) n (%)
TEAE: headache [9]: 0 n (%)
TEAE: hypertrigly-ceridaemia [9]: 1 (33.3) n (%)
TEAE: hyponatremia [9]: 0 n (%)
TEAE: increased alanine aminotransferase [9]: 2 (66.7) n (%)
TEAE: increased aspartate aminotransferase [9]: 0 n (%)
TEAE: nausea [9]: 1 (33.3) n (%)
TEAE: seizure [9]: 1 (33.3) n (%)
TEAE: vomiting [9]: 1 (33.3) n (%)
Number of Patients with Any TEAE [10]: 6 (100) n (%)
TEAE: Confusional state [10]: 1 (16.7) n (%)
TEAE: Gait disturbance [10]: 1 (16.7) n (%)
TEAE: Gastrointestinal disorder [10]: 2 (33.3) n (%)
TEAE: Hiccups [10]: 0 n (%)
TEAE: Tremor [10]: 2 (33.3) n (%)
